Results published in US8227452B2, “Use of a steroid prodrug for the treatment of disease of the posterior segment of the eye” (Novagali Pharma SA, priority 2006, dated 2012).
Read-outs that look alike come from different tables or passages of the source. Each block holds one compound with its values, some of them ahead of it.

Assays:
[1] = cited from earlier work
[2] = rabbit, in vivo
Description: Analytes and internal standard (roxithromycine) were extracted from the tissues using acetonitrile and separated by reverse phase liquid chromatography with a C8 column and a gradient mobile phase. […] The unweighed linear model was applied.

[3] = high-dose intraocular, long-term follow-up; cited from earlier work
[4] = implantation of 0.59 mg or 2.1 mg, noninfectious posterior uveitis patients; cited from earlier work
[5] = 0.59 mg intravitreal implant, patients with diabetic macular edema; cited from earlier work
[6] = subtenon administration; cited from earlier work
[7] = single oral administration of 7.5 mg dexamethasone

Concentration in choroid, mean ([2]; 1 days): 12 nmol/g
Concentration in retina, mean ([2]; 1 days): 7 nmol/g
Concentration in choroid, mean ([2]; 7 days): 12 nmol/g
Concentration in retina, mean ([2]; 7 days): 11 nmol/g
Concentration in choroid, mean ([2]; 14 days): 9 nmol/g
Concentration in retina, mean ([2]; 14 days): 6 nmol/g
Concentration in choroid, mean ([2]; 28 days): 4 nmol/g
Concentration in retina, mean ([2]; 28 days): 4 nmol/g
Concentration in aqueous humor, mean ([2]; 60 days): 0 nmol/g
Concentration in choroid, mean ([2]; 60 days): 3 nmol/g
Concentration in retina, mean ([2]; 60 days): 2 nmol/g
Compound: C[C@@H]1C[C@H]2[C@@H]3CCC4=CC(=O)C=C[C@]4(C)[C@@]3(F)[C@@H](O)C[C@]2(C)[C@@]1(O)C(=O)CO [D, dexamethasone]
Dexamethasone penetration into the vitreous humour ([1]; repeated topical application: 1 drop of 0.1% dexamethasone phosphate drops hourly for 10 hours): less than 2 ng/ml
Serum level [1, 7]: 60 ng/mL
Vitreous level [1, 7]: 5 ng/mL

Compound: CC1(C)O[C@@H]2C[C@H]3[C@@H]4C[C@H](F)C5=CC(=O)C=C[C@]5(C)[C@@]4(F)[C@@H](O)C[C@]3(C)[C@]2(C(=O)CO)O1 [fluocinolone acetonide]
Eyes developing elevated IOP [3]: 100%
Eyes requiring implant removal [3]: approximately 60%
Eyes showing nonischemic central retinal vein occlusion [3]: 30%
Augmentation of the need of IOP lowering agents [4]: 5 fold
Serious cataract progression [5]: 43.1%
Serious intraocular pressure rise [5]: 8.6%

Compound: CC1(C)O[C@@H]2C[C@H]3[C@@H]4CCC5=CC(=O)C=C[C@]5(C)[C@@]4(F)[C@@H](O)C[C@]3(C)[C@]2(C(=O)CO)O1 [triamcinolone acetonide]
Patients with intraocular pressure rise [6]: 21%
